Laboratory results taken from paper PMC9820345, “Metal Complexes of a 5-Nitro-8-Hydroxyquinoline-Proline Hybrid with Enhanced Water Solubility Targeting Multidrug Resistant Cancer Cells” (International Journal of Molecular Sciences, 2022).

Experiments:
Ac-Phe-His-Ala-NH2 (FHA) = experiment: Mixed-ligand adduct formation with His-containing oligopeptide FHA; type: binding
Method: According to numerous papers on the binding of half-sandwich organometallic complexes to HSA [35, 36], surface exposed histidine (His) side chains are the most feasible coordinating moieties. […] The equilibrium could be reached within 3–10 min in the case of the RhCp* complex on the basis of the UV-vis spectral changes (Figure S28), and similar conditional constants (logK’) were computed with these model compounds for the formation of mixed-ligand RhCp* complexes; namely logK’ 5.00 ± 0.1, 4.4 ± 0.1, 5.1 ± 0.1 were obtained in the case of FHA, AHA, and mim, respectively. […] In the case of the oligopeptides, formation of isomers was detected which might be explained by the existence of two chiral centers, namely the metal ion and His-CHα. The adduct formation of the RuCym complex with mim was quantitative, hindering the determination of the logK’ value (meaning logK’ > 5.5). […]
An Agilent Cary 8454 diode array spectrophotometer (Santa Clara, CA, USA) was used to obtain UV-vis spectra in the wavelength range 200–1000 nm, while spectra were recorded for the Fe(II)-containing samples using an Avantes (Avantes B.V., Apeldoorn, The Nederlands) AvaSpec-ULS2048CL-EVO spectrometer with an AvaLight-DHc light source and FDP-7UVIR200-2-VAR transmission dip probe. […]

[1] = Stability of the isolated complexes in aqueous solution at pH 7.4 (UV-vis over 72 h); type: physicochemical
Method: The stability of the isolated RhCp* and RuCym complexes in aqueous solution at pH 7.4 was assayed via recording the UV-vis spectra over 72 h (Figure S18). […] Then, the behaviour of the complexes was monitored between pH 2 and 12 by ^1H NMR spectroscopy (see representative spectra of the RuCym complex in Figure 8) in chloride-free medium, as this halide ion can act as a competitor ligand. There was no indication for the dissociation of the complexes (i.e., liberation of unbound ligand or metal precursor) in the studied pH range or even at pH 1 (Figure S19), showing their fairly high stability in solution.
(§1) An Agilent Cary 8454 diode array spectrophotometer (Santa Clara, CA, USA) was used to obtain UV-vis spectra in the wavelength range 200–1000 nm, while spectra were recorded for the Fe(II)-containing samples using an Avantes (Avantes B.V., Apeldoorn, The Nederlands) AvaSpec-ULS2048CL-EVO spectrometer with an AvaLight-DHc light source and FDP-7UVIR200-2-VAR transmission dip probe. The titrations for the Fe(II)-containing samples were performed in a laboratory glove box (GP(Campus), Jacomex) (O2 content ≤ 1 ppm). The path length (ℓ) was 1 cm in most cases (the actual ℓ is always indicated in the legends of the figures). The concentrations of the ligands and complexes were between 40 and 200 µM, and 0.2 M KNO3 for the organometallic complexes or 0.1 M KCl for the Fe(II/III), Cu(II), and Zn(II) complexes were used to adjust the constant ionic strength. For HSA containing samples, complex concentrations were 50 µM, and 0.5, and 2 equiv. biomolecules were added for kinetic studies, respectively. For HSA model containing samples, complex concentrations were 50 µM, and the model concentrations were 0–150 µM and 0–500 µM, respectively, and the pH was 7.4 (PBS’). Spectra were always background and baseline corrected. The computer program HypSpec was used to obtain stability constants. Hydrolysis constants of the Fe(III), Fe(II), RuCym, and RhCp* species were included in the speciation models (see Table S4 with the data taken from References).

[2] = Formation constants of Fe(II) complexes by UV-vis spectrophotometric titrations; type: physicochemical; conditions: I = 0.1 M KCl, 25.0 °C
Method: UV-vis titrations were performed to determine the formation (overall stability) constants (β) for the complexes of HQNO2-L-Pro formed with Fe(III) and Fe(II) ions (Figures S10 and S11). In the latter case, titrations were performed in a laboratory glove box. The calculations were complicated by the overlapping feature of the ligand bands and the charge transfer bands of the complexes. Based on the absorption spectra Figures S10a and S11a), formation of mono, bis, and tris complexes were found in both chemical systems; obtained constants are collected in Table 2. […] Based on the concentration distribution diagrams (see Figure S10b for Fe(III) and Figure S11b for Fe(II)), it can be concluded that the tris complexes are the dominant species at pH 7.4 in the case of Fe(III), while with Fe(II) both tris and bis-ligand species are formed under the conditions of the titrations.
as §1

[3] = Formation constants of Zn(II) complexes by UV-vis spectrophotometric titrations; type: physicochemical; conditions: I = 0.1 M KCl, 25.0 °C, data evaluated at pH < 8
Method: Complexation of HQNO2-L-Pro with Zn(II) was studied by UV-vis and ^1H NMR spectroscopy (Figure 6). Comparing the UV-vis spectra recorded for the ligand in the presence and in the absence of Zn(II) with increasing pH, complex formation was evident from the UV-vis spectral changes at pH < ~8; however, in the basic pH range the spectra resembled more and more those of the free ligand. Based on the spectra recorded at pH < 8, formation constants for species [Zn(HL)]^+ and [Zn(HL)2] were determined (Table 2).
An Agilent Cary 8454 diode array spectrophotometer (Santa Clara, CA, USA) was used to obtain UV-vis spectra in the wavelength range 200–1000 nm, while spectra were recorded for the Fe(II)-containing samples using an Avantes (Avantes B.V., Apeldoorn, The Nederlands) AvaSpec-ULS2048CL-EVO spectrometer with an AvaLight-DHc light source and FDP-7UVIR200-2-VAR transmission dip probe. The titrations for the Fe(II)-containing samples were performed in a laboratory glove box (GP(Campus), Jacomex) (O2 content ≤ 1 ppm). The path length (ℓ) was 1 cm in most cases (the actual ℓ is always indicated in the legends of the figures). The concentrations of the ligands and complexes were between 40 and 200 µM, and 0.2 M KNO3 for the organometallic complexes or 0.1 M KCl for the Fe(II/III), Cu(II), and Zn(II) complexes were used to adjust the constant ionic strength. […]

[4] = Aqueous solubility at physiological pH (S7.4); type: physicochemical; conditions: water, pH 7.4, aqueous buffer

Row | SMILES | conditional constant logK' of adduct (Ac-Phe-His-Ala-NH2 (FHA); pH 7.4, 1H NMR peak integrals, 24 h incubation) | UV-vis spectral changes in aqueous solution ([1]; first 24 h) | conditional constant logK' of mixed-ligand complex (Ac-Phe-His-Ala-NH2 (FHA); pH 7.4, UV-vis) | UV-vis spectral changes in aqueous solution ([1]; after 48 h) | logβ [M(HL)2] [2] | logβ [M(HL)3] [2] | logβ [M(HL)] [2] | logβ [M(L)] [2] | logβ [M(HL)2] [3] | logβ [M(HL)] [3] | solubility [4] [mM]
1 | Cc1ccc(C(C)C)cc1.O=C(O)[C@@H]1CCC[NH+]1Cc1cc([N+](=O)[O-])c2ccc[n+]3c2c1[O][Ru-]3[Cl].[Cl-] [RuCym-HQNO2-L-Pro, [RuCym(HQNO2-L-Pro)Cl]Cl] | 3.9 ± 0.2 | no measurable changes | – | – | – | – | – | – | – | – | –
2 | CC1=C(C)[C](C)([Rh]([Cl])[O]c2c(C[NH+]3CCC[C@H]3C(=O)O)cc([N+](=O)[O-])c3cccnc23)C(C)=C1C.[Cl-] [RhCp*-HQNO2-L-Pro, [RhCp*(HQNO2-L-Pro)Cl]Cl] | – | no measurable changes | 5.00 ± 0.1 | minor spectral change | – | – | – | – | – | – | –
3 | O=C(O)[C@@H]1CCCN1Cc1cc([N+](=O)[O-])c2cccnc2c1O [HQNO2-L-Pro, (2S)-1-((8-hydroxy-5-nitroquinolin-7-yl)methyl)pyrrolidin-1-ium-2-carboxylate] | – | – | – | – | 32.74 ± 0.03 | 47.60 ± 0.06 | 16.52 ± 0.03 | 8.39 ± 0.03 | 33.71 ± 0.06 | 17.36 ± 0.03 | > 10
